Measurements published in the NIST ThermoML archive (doi:10.1016/j.fluid.2013.08.041).
± gives the expanded uncertainty stated by the source.

Conditions: Liquid; for Critical pressure: Direct measurement; for Normal boiling temperature: Ebulliometric method (Recirculating still); for Critical temperature: Visual observation in a stirred cell

Row | SMILES | Critical pressure | Normal boiling temperature | Critical temperature
1 | Cc1cc(C)c2ccccc2c1 [1,3-dimethylnaphthalene] | 2740 ± 160 kPa | 265.1 ± 0.2 °C | 772 ± 16 K
2 | Cc1ccc(C)c2ccccc12 [1,4-dimethylnaphthalene] | 2790 ± 160 kPa | 265.1 ± 0.2 °C | 778 ± 16 K
3 | Cc1cccc2ccccc12 [1-methylnaphthalene] | 3540 ± 220 kPa | 244.6 ± 0.2 °C | 773 ± 16 K
4 | CCc1ccc2ccccc2c1 [2-ethylnaphthalene] | 2790 ± 160 kPa | 254.1 ± 0.2 °C | 763 ± 16 K
5 | Cc1ccc2ccccc2c1 [2-methylnaphthalene] | 3300 ± 200 kPa | 241.1 ± 0.2 °C | 755 ± 16 K
